Reference: PubChem BioAssay (NCI)
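Where inhibition never reached the appropriate level, the endpoint shown equals the highest concentration tested. Otherwise, values were interpolated linearly from a five-concentration, 48-hour dose response in 96-well plates. GI50 marks 50% less growth. The concentration for full growth arrest is given as TGI.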

Assays:
Assay in all cases: NCI-60 cell line screen, 48 h
[1] = system: OVCAR-3 ovarian
[2] = system: MOLT-4 leukemia
[3] = system: RPMI-8226 leukemia
[4] = system: NCI/ADR-RES ovarian
[5] = system: DU-145 prostate
[6] = system: SR leukemia
[7] = system: SK-MEL-5 melanoma
[8] = system: U251 CNS
[9] = system: NCI-H460 lung
[10] = system: MDA-MB-231 breast
[11] = system: HOP-92 NSCLC
[12] = system: MDA-MB-468 breast
[13] = system: NCI-H226 lung
[14] = system: CCRF-CEM leukemia
[15] = system: IGROV1 ovarian
[16] = system: MCF7 breast
[17] = system: CAKI-1 renal
[18] = system: UACC-62 melanoma
[19] = system: OVCAR-5 ovarian
[20] = system: OVCAR-4 ovarian
[21] = system: HL-60(TB) leukemia
[22] = system: ACHN renal
[23] = system: TK-10 renal
[24] = system: HCT-116 colon
[25] = system: MALME-3M melanoma
[26] = system: SK-OV-3 ovarian
[27] = system: PC-3 prostate
[28] = system: HCC-2998 colon
[29] = system: SF-295 CNS

Compound: CNc1nc2ccccc2n2c(-c3ccc(O)c(O)c3)cnc12
- TGI [1]: 4.62 µM
- GI50 [2]: < 10 nM
- TGI [2]: 18.9 µM
- GI50 [3]: < 10 nM
- TGI [3]: 6.6 µM
- GI50 [4]: < 10 nM
- TGI [4]: < 10 nM
- GI50 [5]: < 10 nM
- TGI [5]: > 33.9 µM
- GI50 [6]: < 10 nM
- TGI [6]: > 34 µM
- GI50 [7]: < 10 nM
- TGI [7]: 14.2 nM
- GI50 [8]: < 10 nM
- TGI [8]: > 39.2 µM
- GI50 [9]: < 10 nM
- TGI [9]: 10.5 µM
- GI50 [10]: < 10 nM
- TGI [10]: < 14.9 nM
- GI50 [11]: 170 nM
- TGI [11]: 10.5 µM
- GI50 [12]: < 10 nM
- TGI [12]: < 10 nM
- GI50 [13]: 1410 nM
- TGI [13]: 37.9 µM
- GI50 [14]: < 10 nM
- TGI [14]: 1770 nM
- GI50 [15]: < 10 nM
- TGI [15]: 18.9 µM
- GI50 [16]: < 10 nM
- TGI [16]: > 38.5 µM
- GI50 [17]: < 10 nM
- TGI [17]: 22.2 µM
- GI50 [18]: < 10 nM
- TGI [18]: 5.09 µM
- GI50 [19]: < 10 nM
- TGI [19]: 23.3 µM
- GI50 [20]: 475 nM
- TGI [20]: > 78.8 µM
- GI50 [21]: < 10 nM
- TGI [21]: < 10 nM
- GI50 [22]: < 10 nM
- TGI [22]: 20.9 µM
- GI50 [23]: 7.98 µM
- TGI [23]: 44.3 µM
- GI50 [24]: < 10 nM
- TGI [24]: 963 nM
- GI50 [25]: < 10 nM
- TGI [25]: 19.3 µM
- GI50 [26]: 191 nM
- TGI [26]: 13.6 µM
- GI50 [27]: < 10 nM
- TGI [27]: 25.9 µM
- GI50 [28]: < 10 nM
- TGI [28]: 15 µM
- GI50 [29]: < 11 nM
- TGI [29]: 1740 nM
